The values that follow come from patent US20250122191A1, “COMPOUNDS AS BCL-2 INHIBITORS” (Fochon Biosciences, Ltd, priority 2021, published 2025).

What all share (format): cell-based
One assay relates to Toledo cells. Nature of the assay: Cell proliferation assay (MTS), Toledo cells. As to conditions: Homo sapiens, 72 h. In outline: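 Toledo cells (RPMI-1640, 10% FBS) seeded at 30000 cells/well, rested 4 h, then exposed 72 h at 37 °C, 5% CO2 to compound at nine final concentrations, 1.5–10000 nM. Viability by MTS (2 h), absorbance at 490 nm. IC50 from the concentration-response.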

Another assay relates to RS4;11-BCL-2 F104L cells. Nature of the assay: Cell proliferation assay (MTS), RS4;11-BCL-2 F104L engineered cells. The note with it: Homo sapiens, 120 h, read-out: RS4, 11 BCL2-F104L IC50. From the text:
MTS testing kit was purchased from Promega (Madison, WI, USA). The RPMI-1640, Fetal bovine serum and Penicillin-Streptomycin were purchased from BI (Biological Industries, Beit Haemek, Israel). Puromycin was purchased from Beyotime (shanghai, China). Dimethyl sulfoxide (DMSO) was purchased from Sigma (St. Louis., MO, USA). RS4;11-BCL-2 G101V (Cobioer Lot. #: CBD2021063013P4), RS4;11-BCL-2 D103E (Cobioer Lot. #: CBD2021063013P4), RS4;11-BCL-2 D103Y (Cobioer Lot. #: CBD2022012101P4) and RS4;11-BCL-2 F104L (Cobioer Lot. #: CBD2021063014P4) cells were cultured in RPMI1640 supplemented with 1 ug/mL puromycin, 100 U/mL Penicillin-Streptomycin and 10% FBS.
To investigate whether a compound is able to inhibit the activity of BCL-2 mutation in cells, a mechanism-based assay using engineered cell lines stably overexpressing BCL-2 mutation (RS4;11-BCL-2 G101V, RS4;11-BCL-2 D103E, RS4;11-BCL-2 D103Y, and RS4;11-BCL-2 F104L) was developed. In this assay, the inhibition of BCL-2 mutation was reflected by the inhibition of cell proliferation of engineered RS4;11 cells. Cells were plated into 96-well plates at optimized cell density (RS4;11-BCL-2 G101V: 5000 cells/well; RS4;11-BCL-2 D103E: 7500 cells/well; RS4;11-BCL-2 D103Y: 7500 cells/well; RS4;11-BCL-2 F104L: 5000 cells/well). Plates were incubated at 37° C., with 5% CO2 for 4 h (RS4;11-BCL-2 G101V, RS4;11-BCL-2 F104L) and 24 h (RS4;11-BCL-2 D103E, RS4;11-BCL-2 D103Y), respectively. Compounds were serially diluted and added to the plates with the final concentrations of 10000, 3333.3, 1111.1, 370.4, 123.5, 41.2, 13.7, 4.6 and 1.5 nM. Plates were incubated at 37° C., with 5% CO2 for 120 h (RS4; 11-BCL-2 G101V, RS4; 11-BCL-2 F104L) and 72 h (RS4;11-BCL-2 D103E, RS4;11-BCL-2 D103Y), respectively. 20 μl MTS was added into each well and the plates were incubated at 37° C., with 5% CO2 exactly for 2 h. The absorbance was measured by a microplate reader at 490 nm. IC50 values were calculated using GraphPad Prism 8.0 software.

For another assay, the system named is RS4;11-BCL-2 G101V cells. Put plainly: Cell proliferation assay (MTS), RS4;11-BCL-2 G101V engineered cells. The note with it: Homo sapiens, 120 h, read-out: RS4, 11 BCL2-G101V IC50. In outline:
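Inhibition of mutant BCL-2 is inferred from reduced proliferation of RS4;11 cells stably overexpressing the mutant. Compounds are tested at 1.5–10000 nM for 120 h (G101V, F104L) or 72 h (D103E, D103Y), with MTS absorbance at 490 nm used to derive IC50.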

pIC50: −log10 of the molar value.

As a reminder, the pIC50 is the negative decadic logarithm of the IC50, by convention in mol/L. As to `CCOc1nc2[nH]cc(F)c2cc1Oc1cc(N2CCC3(CC2)CC(N2CCN(Cc4ccc(C5CC5)c(OC)c4)C[C@H]2c2ccccc2C(C)C)C3)ccc1C(=O)NS(=O)(=O)c1cnc(NC[C@H]2CC[C@](C)(O)CC2)c([N+](=O)[O-])c1` [Example 6, 4-(2-((R)-4-(4-cyclopropyl-3-methoxybenzyl)-2-(2-isopropylphenyl)piperazin-1-yl)-7-azaspiro[3.5]nonan-7-yl)-2-((6-ethoxy-3-fluoro-1H-pyrrolo[2,3-b]pyridin-5-yl)oxy)-N-((6-((((1r,4r)-4-hydroxy-4-methylcyclohexyl)methyl)amino)-5-nitropyridin-3-yl)sulfonyl)benzamide], the negative logarithm of the IC50 (pIC50) in the assay on Toledo cells, in the assay on RS4;11-BCL-2 F104L cells and with RS4;11-BCL-2 G101V cells was 9.00 each time.

Take `COc1nc2[nH]cc(F)c2cc1Oc1cc(N2CCC3(CC2)CC(N2CCN(Cc4ccnc(Cl)c4)C[C@H]2c2ccccc2C(C)C)C3)ccc1C(=O)NS(=O)(=O)c1cnc(NC[C@H]2CC[C@](C)(O)CC2)c([N+](=O)[O-])c1` [Example 357, 4-(2-((R)-4-((2-chloropyridin-4-yl)methyl)-2-(2-isopropylphenyl)piperazin-1-yl)-7-azaspiro[3.5]nonan-7-yl)-2-((3-fluoro-6-methoxy-1H-pyrrolo[2,3-b]pyridin-5-yl)oxy)-N-((6-((((1r,4r)-4-hydroxy-4-methylcyclohexyl)methyl)amino)-5-nitropyridin-3-yl)sulfonyl)benzamide]: the negative logarithm of the IC50 (pIC50) was 9.00 in the assay with Toledo cells and 8.52 in the assay on RS4;11-BCL-2 F104L cells.

For `COc1nc2[nH]cc(F)c2cc1Oc1cc(N2CCC3(CC2)CC(N2CCOC[C@H]2c2ccccc2C(C)C)C3)ccc1C(=O)NS(=O)(=O)c1cnc(NC[C@H]2CC[C@](C)(O)CC2)c([N+](=O)[O-])c1` [Example 87, 2-((3-fluoro-6-methoxy-1H-pyrrolo[2,3-b]pyridin-5-yl)oxy)-N-((6-((((1r,4r)-4-hydroxy-4-methylcyclohexyl)methyl)amino)-5-nitropyridin-3-yl)sulfonyl)-4-(2-((R)-3-(2-isopropylphenyl)morpholino)-7-azaspiro[3.5]nonan-7-yl)benzamide], the pIC50 in the assay with Toledo cells, in the assay on RS4;11-BCL-2 F104L cells and in the assay on RS4;11-BCL-2 G101V cells was 9.00 in each case.

With `CC(C)c1ccccc1[C@@H]1CN(Cc2ccc3c(c2)OCO3)CCN1C1CC2(CCN(c3ccc(C(=O)NS(=O)(=O)c4cnc(NC[C@H]5CC[C@](C)(O)CC5)c([N+](=O)[O-])c4)c(Oc4cnc5[nH]cc(F)c5c4)c3)CC2)C1` [Example 354, 4-(2-((R)-4-(benzo[d][1,3]dioxol-5-ylmethyl)-2-(2-isopropylphenyl)piperazin-1-yl)-7-azaspiro[3.5]nonan-7-yl)-2-((3-fluoro-1H-pyrrolo[2,3-b]pyridin-5-yl)oxy)-N-((6-((((1r,4r)-4-hydroxy-4-methylcyclohexyl)methyl)amino)-5-nitropyridin-3-yl)sulfonyl)benzamide], the pIC50 with Toledo cells, with RS4;11-BCL-2 F104L cells and with RS4;11-BCL-2 G101V cells was 9.00 in each case.

`COc1nc2[nH]cc(F)c2cc1Oc1cc(N2CCC3(CC2)CC(N2CCN(Cc4ccc(S(C)(=N)=O)cc4)C[C@H]2c2ccccc2C(C)C)C3)ccc1C(=O)NS(=O)(=O)c1cnc(NC[C@H]2CC[C@](C)(O)CC2)c([N+](=O)[O-])c1` (stereo partly drawn) [Example 336, 2-((3-fluoro-6-methoxy-1H-pyrrolo[2,3-b]pyridin-5-yl)oxy)-N-((6-((((1r,4r)-4-hydroxy-4-methylcyclohexyl)methyl)amino)-5-nitropyridin-3-yl)sulfonyl)-4-(2-((2R)-2-(2-isopropylphenyl)-4-(4-(S-methylsulfonimidoyl)benzyl)piperazin-1-yl)-7-azaspiro[3.5]nonan-7-yl)benzamide]: the negative-log IC50 (pIC50) in the assay on Toledo cells and in the assay on RS4;11-BCL-2 F104L cells was 9.00 each time.

For the molecule `CCOc1nc2[nH]cc(F)c2cc1Oc1cc(N2CCC3(CC2)CC(N2CCN(Cc4ccc(OC)c5oc(C)cc45)C[C@H]2c2ccccc2C(C)C)C3)ccc1C(=O)NS(=O)(=O)c1cnc(NC[C@H]2CC[C@](C)(O)CC2)c([N+](=O)[O-])c1` [Example 14, 2-((6-ethoxy-3-fluoro-1H-pyrrolo[2,3-b]pyridin-5-yl)oxy)-N-((6-((((1r,4r)-4-hydroxy-4-methylcyclohexyl)methyl)amino)-5-nitropyridin-3-yl)sulfonyl)-4-(2-((R)-2-(2-isopropylphenyl)-4-((7-methoxy-2-methylbenzofuran-4-yl)methyl)piperazin-1-yl)-7-azaspiro[3.5]nonan-7-yl)benzamide], the negative logarithm of the IC50 (pIC50) with Toledo cells, with RS4;11-BCL-2 F104L cells and in the assay on RS4;11-BCL-2 G101V cells was 9.00 in each case.

On to `COc1ccc(CN2CCN(C3CC4(CCN(c5ccc(C(=O)NS(=O)(=O)c6cnc(NC[C@H]7CC[C@](C)(O)CC7)c([N+](=O)[O-])c6)c(Oc6cc7c(F)c[nH]c7nc6OC)c5)CC4)C3)[C@H](c3ccccc3C(C)C)C2)cc1F` [Example 97, 4-(2-((R)-4-(3-fluoro-4-methoxybenzyl)-2-(2-isopropylphenyl)piperazin-1-yl)-7-azaspiro[3.5]nonan-7-yl)-2-((3-fluoro-6-methoxy-1H-pyrrolo[2,3-b]pyridin-5-yl)oxy)-N-((6-((((1r,4r)-4-hydroxy-4-methylcyclohexyl)methyl)amino)-5-nitropyridin-3-yl)sulfonyl)benzamide], for which the pIC50 with Toledo cells and in the assay with RS4;11-BCL-2 F104L cells was 9.00 each time.

Take `COc1nc2[nH]cc(F)c2cc1Oc1cc(N2CCC3(CC2)CC(N2CCC[C@H]2c2ccccc2C(C)C)C3)ccc1C(=O)NS(=O)(=O)c1cnc(NC[C@H]2CC[C@](C)(O)CC2)c([N+](=O)[O-])c1` [Example 89, 2-((3-fluoro-6-methoxy-1H-pyrrolo[2,3-b]pyridin-5-yl)oxy)-N-((6-((((1r,4r)-4-hydroxy-4-methylcyclohexyl)methyl)amino)-5-nitropyridin-3-yl)sulfonyl)-4-(2-((S)-2-(2-isopropylphenyl)pyrrolidin-1-yl)-7-azaspiro[3.5]nonan-7-yl)benzamide]: the pIC50 with RS4;11-BCL-2 F104L cells and with RS4;11-BCL-2 G101V cells was 9.00 each time.

For the molecule `COc1cc(CN2CCN(C3CC4(CCN(c5ccc(C(=O)NS(=O)(=O)c6cnc(NC[C@H]7CC[C@](C)(O)CC7)c([N+](=O)[O-])c6)c(Oc6cc7c(F)c[nH]c7nc6OC)c5)CC4)C3)[C@H](c3ccccc3C(C)C)C2)cc2c1OCCC2` [Example 103, 2-((3-fluoro-6-methoxy-1H-pyrrolo[2,3-b]pyridin-5-yl)oxy)-N-((6-((((1r,4r)-4-hydroxy-4-methylcyclohexyl)methyl)amino)-5-nitropyridin-3-yl)sulfonyl)-4-(2-((R)-2-(2-isopropylphenyl)-4-((8-methoxychroman-6-yl)methyl)piperazin-1-yl)-7-azaspiro[3.5]nonan-7-yl)benzamide], the pIC50 in the assay with Toledo cells and in the assay on RS4;11-BCL-2 F104L cells was 9.00 each time.

As for `COc1nc2[nH]cc(F)c2cc1Oc1cc(N2CCC3(CC2)CC(N2CCN(Cc4ccnc(OC(F)F)c4)C[C@H]2c2ccccc2C(C)C)C3)ccc1C(=O)NS(=O)(=O)c1cnc(NC[C@H]2CC[C@](C)(O)CC2)c([N+](=O)[O-])c1` [Example 67, 4-(2-((R)-4-((2-(difluoromethoxy)pyridin-4-yl)methyl)-2-(2-isopropylphenyl)piperazin-1-yl)-7-azaspiro[3.5]nonan-7-yl)-2-((3-fluoro-6-methoxy-1H-pyrrolo[2,3-b]pyridin-5-yl)oxy)-N-((6-((((1r,4r)-4-hydroxy-4-methylcyclohexyl)methyl)amino)-5-nitropyridin-3-yl)sulfonyl)benzamide], the negative-log IC50 (pIC50) with RS4;11-BCL-2 F104L cells and in the assay on RS4;11-BCL-2 G101V cells was 9.00 each time.
